Laboratory results reported in ChEMBL document CHEMBL1201862, “PubChem BioAssay data set” (2004).
Active and inactive are the calls of the source.

How the values were obtained:
[1] = Luminescence Cell-Based Dose Response HTS to Identify Activators of Luciferase Translation or Activity in H4 […] Cells. [Related pubchem assays: 1829 (Project Summary), 1814 (Primary HTS)]; type: functional
H4 = assay: Luminescence Cell-Based Dose Response HTS to Identify Activators of 5'UTR Stem-Loop Driven Prion Protein mRNA Translation in H4 Neuroglioblastoma Cells. [Related pubchem assays: 1829 (Project Summary), 1814 (Primary HTS)]; type: functional; conditions: Homo sapiens
[2] = target: Aryl hydrocarbon receptor (Homo sapiens, UniProt P35869); assay: Luminescence-based cell-based high throughput dose response assay for activators of the Aryl Hydrocarbon Receptor (AHR). [Related pubchem assays: 2796 (Primary screen (AHR activators in singlicate)), 2845 (Confirmation screen (AHR activators in triplicate)), 434939 (Counterscreen (PXR activators in triplicate)), 2804 (Summary (AHR activators))]; type: ADME
Vero = assay: West Nile virus antiviral activity, cell-based, CPE readout (AID 1621); type: functional; conditions: Chlorocebus sabaeus
[3] = target: T1, Histone-lysine N-methyltransferase NSD2 (Homo sapiens, UniProt O96028); type: biochemical
T1 sequence (O96028 whole entry): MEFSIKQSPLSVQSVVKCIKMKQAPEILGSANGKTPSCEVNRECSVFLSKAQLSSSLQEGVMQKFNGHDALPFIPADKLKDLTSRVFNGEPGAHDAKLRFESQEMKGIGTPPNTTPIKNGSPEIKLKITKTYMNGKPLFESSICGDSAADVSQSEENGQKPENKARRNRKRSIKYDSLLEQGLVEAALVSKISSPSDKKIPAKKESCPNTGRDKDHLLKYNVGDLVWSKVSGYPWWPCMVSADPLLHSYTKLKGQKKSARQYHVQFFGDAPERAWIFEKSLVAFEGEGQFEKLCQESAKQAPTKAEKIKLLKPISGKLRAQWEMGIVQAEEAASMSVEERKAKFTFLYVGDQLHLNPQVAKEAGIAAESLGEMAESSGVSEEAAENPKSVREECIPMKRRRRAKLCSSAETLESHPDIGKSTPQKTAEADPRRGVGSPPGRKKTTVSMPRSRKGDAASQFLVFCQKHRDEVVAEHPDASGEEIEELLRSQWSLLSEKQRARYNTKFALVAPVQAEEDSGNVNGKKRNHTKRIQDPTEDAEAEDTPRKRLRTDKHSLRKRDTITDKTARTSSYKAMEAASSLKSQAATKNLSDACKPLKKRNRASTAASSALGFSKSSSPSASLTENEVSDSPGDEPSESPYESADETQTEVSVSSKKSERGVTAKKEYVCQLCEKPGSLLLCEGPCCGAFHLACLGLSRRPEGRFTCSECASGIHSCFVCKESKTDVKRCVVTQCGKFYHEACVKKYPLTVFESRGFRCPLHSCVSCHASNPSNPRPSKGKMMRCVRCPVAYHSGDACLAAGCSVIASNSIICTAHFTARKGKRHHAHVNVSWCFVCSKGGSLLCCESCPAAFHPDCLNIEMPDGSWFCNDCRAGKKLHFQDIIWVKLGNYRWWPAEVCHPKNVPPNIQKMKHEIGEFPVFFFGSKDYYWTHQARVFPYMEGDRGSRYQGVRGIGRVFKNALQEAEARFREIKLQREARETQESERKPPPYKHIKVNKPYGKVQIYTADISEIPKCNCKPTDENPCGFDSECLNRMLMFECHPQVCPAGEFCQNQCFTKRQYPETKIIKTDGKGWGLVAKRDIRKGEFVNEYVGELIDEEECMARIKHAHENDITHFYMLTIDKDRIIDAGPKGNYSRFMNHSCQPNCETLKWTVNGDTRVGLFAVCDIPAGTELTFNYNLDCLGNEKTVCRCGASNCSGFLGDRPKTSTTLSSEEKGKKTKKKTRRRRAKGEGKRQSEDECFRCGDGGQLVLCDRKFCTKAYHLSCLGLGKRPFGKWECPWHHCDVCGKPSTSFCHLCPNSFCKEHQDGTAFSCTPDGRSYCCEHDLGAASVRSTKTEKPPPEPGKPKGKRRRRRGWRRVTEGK

[4] = target: Solute carrier family 12 member 2/member 5 (Homo sapiens, UniProt P55011+Q9H2X9); assay: KCC2 and NKCC1 inhibition by rubidium flux, cell-based, NKCC1 counter-screen (AID 1734); type: functional, HEK293
HT-1080 = assay: cytotoxicity in HT1080 fibrosarcoma cells, cell-based, fluorescence readout (AID 620); type: functional; conditions: Homo sapiens
[5] = Luminescence Cell-Based Dose Response HTS to Identify Inhibitors of 5'UTR Stem-Loop Driven Prion Protein mRNA Translation in H4 Neuroglioblastoma Cells. [Related pubchem assays: 1827 (Project Summary), 1813 (Primary HTS)]; type: functional
[6] = A549 cell cytotoxicity, dose response, cytotoxicity control, plate reader, cherry-pick, antagonist series (AID 743412); type: functional, cell-based
[7] = HepG2 cell cytotoxicity, dose response, cytotoxicity control, plate reader, cherry-pick, antagonist series (AID 743416); type: functional, cell-based
[8] = LGR2 antagonists, dose response, cell-based, HEK293, CRE-luciferase reporter, cherry pick, set 2 (AID 743343); type: functional;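 also: transfected cells were stimulated with diluted bursicon conditioned medium after compound addition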
[9] = MC4R antagonists, dose response, counter-screen for LGR2 antagonist project, cell-based, plate reader, cherry pick (AID 743444); type: functional;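 also: transfected HEK 293 cells stimulated with alpha-MSH peptide; potency of inhibitors of the alpha-MSH evoked signal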
[10] = target: T2, Oxysterols receptor LXR-beta (Homo sapiens, UniProt P55055); type: functional, cell-based;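 also: Cell-based luminescence dose-response assay of agonist activity at LXR, run as a confirmatory counterscreen to a daf-12 agonist screen; HEK293 cells with Gal4-LXR fusion and GAL4-driven luciferase reporter; agonist potency from rising luciferase signal of a Gal4-LXR reporter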
T2 sequence (P55055 whole entry): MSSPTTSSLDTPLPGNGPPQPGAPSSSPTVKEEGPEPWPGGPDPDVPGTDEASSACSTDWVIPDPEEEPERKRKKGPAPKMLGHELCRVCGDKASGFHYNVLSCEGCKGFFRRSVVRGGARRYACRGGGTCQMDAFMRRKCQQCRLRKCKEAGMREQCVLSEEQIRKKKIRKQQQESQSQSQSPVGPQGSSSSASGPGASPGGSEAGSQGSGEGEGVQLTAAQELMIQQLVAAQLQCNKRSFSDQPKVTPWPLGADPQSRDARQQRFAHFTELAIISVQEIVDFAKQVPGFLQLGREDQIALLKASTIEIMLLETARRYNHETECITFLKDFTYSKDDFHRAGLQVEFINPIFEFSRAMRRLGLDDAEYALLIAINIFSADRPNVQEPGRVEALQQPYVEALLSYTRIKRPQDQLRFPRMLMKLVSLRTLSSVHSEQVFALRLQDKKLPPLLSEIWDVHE

[11] = target: E3 ubiquitin-protein ligase UHRF1 (Homo sapiens, UniProt Q96T88); assay: Counterscreen for inhibitors of 5-meCpG-binding domain protein 2 (MBD2): TRFRET-based biochemical high throughput dose response assay to identify inhibitors of binding of ubiquitin-like with PHD and ring finger domains 1 (UHRF1) to methylated oligonucleotide.
Genome polyprotein = Genome polyprotein (Hepatitis C virus, UniProt Q2Q167); assay: HCV core protein dimerization inhibitors, dose response, biochemical, TR-FRET (AID 2159); parameters: species or system Hepacivirus hominis;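 also: blocks dimerization of HCV core protein measured by TR-FRET between tagged core106 pairs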
[12] = cytotoxicity in HepG2 cells, dose response, cytotoxicity control, cell-based, plate reader, dry powder (AID 651947); type: functional
[13] = HEK293T cell cytotoxicity, dose response, cytotoxicity control, CellTiter-Glo luminescence, dry powder, set 6 (AID 651949); type: functional, cell-based; conditions: HEK293
[14] = inhibitors of LMP1-driven NF-kB reporter, dose response, cell-based, EBV LMP1, luciferase, dry powder, set 2 (AID 624361); type: functional
[15] = target: NAD-dependent protein deacylase sirtuin-5, mitochondrial (Homo sapiens, UniProt Q9NXA8); assay: SIRT5 deacylase inhibitors, dose response, biochemical, fluorescence imaging, cherry-pick, set 6 (AID 720597)
[16] = target: Protein-tyrosine kinase 2-beta (Homo sapiens, UniProt Q14289);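 also: potency of inhibitors of PYK2 kinase phosphorylation of poly-GT substrate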
[17] = target: Peroxisome proliferator-activated receptor gamma/Nuclear receptor corepressor 2 (Homo sapiens, UniProt P37231+Q9Y618); assay: Counterscreen for NR2E3 inverse agonists: TR-FRET-based biochemical high throughput dose response assay to identify inverse agonists of the interaction between peroxisome proliferator-activated receptor gamma (PPARg) and nuclear receptor co-repressor 2 (NCOR2).; type: functional
[18] = target: Photoreceptor-specific nuclear receptor (Homo sapiens, UniProt Q9Y5X4); assay: NR2E3 inverse agonists, dose response, biochemical, TR-FRET (AID 463256); type: functional
[19] = target: Heat shock protein HSP 90-alpha (Homo sapiens, UniProt P07900); assay: Luminescence-based dose response biochemical high throughput screening assay for inhibitors of the Heat Shock Protein 90 (HSP90). [Related pubchem assays: 1831 (Summary AID.), 1846 (Confirmation screen.), 1789 (Primary screen.)]
Cytochrome P450 3A4 = Cytochrome P450 3A4 (Homo sapiens, UniProt P08684);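 also: CYP3A4 tested as one member of a cytochrome P450 panel screen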
[20] = P. falciparum 3D7-ScDHODH growth inhibitors, dose response, SYBR Green, dry powder samples (AID 1159570); type: functional, cell-based;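 also: parasite growth measured after 72 hours of compound exposure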
[21] = HepG2 cell cytotoxicity, dose response, cytotoxicity control, plate reader, dry powder samples (AID 1159569); type: functional, cell-based;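 also: inhibitor potency with signal falling toward the positive control level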
[22] = P. falciparum Dd2 growth inhibitors, dose response, SYBR Green, cherry-picked samples (AID 1159567); type: functional, cell-based
[23] = P. falciparum Dd2 growth inhibitors, dose response, SYBR Green, dry powder samples (AID 1159566); type: functional, cell-based;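 also: potency for growth inhibition with lower SYBR green DNA signal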
[24] = Plasmodium falciparum Dd2 Sybr green parasite growth Measured in Cell-Based and Microorganism Combination System Using Plate Reader - 2153-01_Inhibitor_Dose_DryPowder_Activity_Set3.; type: functional
[25] = P. falciparum ATP4 D1247Y mutant growth inhibitors, dose response, NITD609-resistant line, SYBR Green, dry powder (AID 1159571); type: functional, cell-based;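 also: parasites synchronized at ring stage by sorbitol before testing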
[26] = target: 5-hydroxytryptamine receptor 1A (Homo sapiens, UniProt P08908); type: functional
[27] = target: T3, DNA repair protein RAD52 homolog (Homo sapiens, UniProt P43351); type: functional, biochemical
T3 sequence (P43351 whole entry): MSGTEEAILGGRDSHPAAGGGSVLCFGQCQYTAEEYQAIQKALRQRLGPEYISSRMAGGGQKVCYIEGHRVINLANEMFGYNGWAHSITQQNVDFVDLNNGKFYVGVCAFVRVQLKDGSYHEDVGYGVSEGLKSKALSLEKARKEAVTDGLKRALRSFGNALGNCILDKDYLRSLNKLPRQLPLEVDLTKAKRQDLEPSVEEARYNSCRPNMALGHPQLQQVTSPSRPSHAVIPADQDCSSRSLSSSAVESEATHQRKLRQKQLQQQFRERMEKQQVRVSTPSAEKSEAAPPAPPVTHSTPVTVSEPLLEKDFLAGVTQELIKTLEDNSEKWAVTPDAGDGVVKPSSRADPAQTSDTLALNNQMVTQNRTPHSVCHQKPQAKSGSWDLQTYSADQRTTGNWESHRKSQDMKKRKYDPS

Kallikrein-7 = Kallikrein-7 (Homo sapiens, UniProt P49862); assay: Fluorescence Intensity-based biochemical primary high throughput dose response assay to identify activators of kallikrein-7 (K7) zymogen.
INS1 = assay: beta cell apoptosis inhibitors, cytokine rescue, dose response, luminescence, retest (AID 449756); type: functional, cell-based; conditions: Rattus norvegicus;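 also: cell death triggered by IL-1 beta plus TNF-alpha plus IFN-gamma mixture; protective hits raise ATP signal compared with cytokine alone wells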
Protein Wnt-3a = Protein Wnt-3a (Mus musculus, UniProt P27467); assay: Wnt3a-driven reporter signaling inhibition, dose response, selectivity assay for Gli-SUFU antagonist project, Wnt-LIGHT cells, luminescence (AID 651570); type: functional; conditions: read-out: IC50_Mean;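 also: Wnt-LIGHT reporter cells stimulated with conditioned medium from Wnt3a-producing cells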
[28] = HeLa 2N DNA content increase, dose response, cell-based, IC50 (AID 1117349); type: functional
[29] = HeLa 4N DNA content increase, dose response, cell-based, IC50 (AID 1117351); type: functional

Chain of Protein Wnt-3a (P27467 whole entry): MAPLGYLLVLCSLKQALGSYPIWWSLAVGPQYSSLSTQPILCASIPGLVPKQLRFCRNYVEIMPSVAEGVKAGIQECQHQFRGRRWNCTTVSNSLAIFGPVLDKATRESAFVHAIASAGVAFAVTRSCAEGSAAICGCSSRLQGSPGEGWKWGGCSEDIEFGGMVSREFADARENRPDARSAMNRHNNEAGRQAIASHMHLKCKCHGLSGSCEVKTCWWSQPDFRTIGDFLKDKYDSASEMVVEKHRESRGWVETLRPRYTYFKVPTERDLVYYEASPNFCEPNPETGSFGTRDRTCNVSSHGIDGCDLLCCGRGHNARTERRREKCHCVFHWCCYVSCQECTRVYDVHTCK
Chain of NAD-dependent protein deacylase sirtuin-5, mitochondrial (Q9NXA8 whole entry): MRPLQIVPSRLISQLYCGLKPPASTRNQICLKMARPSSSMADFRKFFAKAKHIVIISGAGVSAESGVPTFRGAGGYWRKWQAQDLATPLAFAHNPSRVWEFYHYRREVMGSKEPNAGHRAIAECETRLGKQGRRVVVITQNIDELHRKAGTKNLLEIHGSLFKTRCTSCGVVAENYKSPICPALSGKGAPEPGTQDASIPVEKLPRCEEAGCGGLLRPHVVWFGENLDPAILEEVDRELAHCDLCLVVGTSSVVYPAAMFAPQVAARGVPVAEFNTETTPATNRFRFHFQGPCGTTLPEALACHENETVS
Chain of Photoreceptor-specific nuclear receptor (Q9Y5X4 whole entry): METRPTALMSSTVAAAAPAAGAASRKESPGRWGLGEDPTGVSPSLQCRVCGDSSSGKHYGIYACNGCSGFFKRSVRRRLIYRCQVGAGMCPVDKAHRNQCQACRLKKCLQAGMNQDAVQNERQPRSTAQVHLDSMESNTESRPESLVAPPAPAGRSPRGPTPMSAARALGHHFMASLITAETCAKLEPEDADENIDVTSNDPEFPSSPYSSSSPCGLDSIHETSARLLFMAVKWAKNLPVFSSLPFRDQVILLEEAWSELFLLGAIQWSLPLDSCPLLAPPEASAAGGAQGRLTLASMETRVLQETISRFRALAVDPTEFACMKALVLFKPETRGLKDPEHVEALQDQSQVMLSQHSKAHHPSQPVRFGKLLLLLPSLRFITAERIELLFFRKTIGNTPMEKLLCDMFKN
Chain of Peroxisome proliferator-activated receptor gamma/Nuclear receptor corepressor 2 (P37231 whole entry): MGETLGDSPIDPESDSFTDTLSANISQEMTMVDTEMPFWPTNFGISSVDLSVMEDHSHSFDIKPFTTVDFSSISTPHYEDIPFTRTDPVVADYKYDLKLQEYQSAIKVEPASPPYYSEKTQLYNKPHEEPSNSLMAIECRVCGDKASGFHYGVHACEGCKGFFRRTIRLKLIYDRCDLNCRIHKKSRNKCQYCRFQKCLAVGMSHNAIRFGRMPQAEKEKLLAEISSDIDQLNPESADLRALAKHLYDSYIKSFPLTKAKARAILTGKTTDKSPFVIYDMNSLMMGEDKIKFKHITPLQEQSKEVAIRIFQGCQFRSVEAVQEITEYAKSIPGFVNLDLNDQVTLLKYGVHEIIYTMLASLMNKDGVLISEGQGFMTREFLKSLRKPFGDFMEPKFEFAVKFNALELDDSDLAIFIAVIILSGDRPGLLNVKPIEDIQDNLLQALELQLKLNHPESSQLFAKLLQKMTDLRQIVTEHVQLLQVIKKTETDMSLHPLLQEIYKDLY
Chain of Peroxisome proliferator-activated receptor gamma/Nuclear receptor corepressor 2 (Q9Y618 whole entry): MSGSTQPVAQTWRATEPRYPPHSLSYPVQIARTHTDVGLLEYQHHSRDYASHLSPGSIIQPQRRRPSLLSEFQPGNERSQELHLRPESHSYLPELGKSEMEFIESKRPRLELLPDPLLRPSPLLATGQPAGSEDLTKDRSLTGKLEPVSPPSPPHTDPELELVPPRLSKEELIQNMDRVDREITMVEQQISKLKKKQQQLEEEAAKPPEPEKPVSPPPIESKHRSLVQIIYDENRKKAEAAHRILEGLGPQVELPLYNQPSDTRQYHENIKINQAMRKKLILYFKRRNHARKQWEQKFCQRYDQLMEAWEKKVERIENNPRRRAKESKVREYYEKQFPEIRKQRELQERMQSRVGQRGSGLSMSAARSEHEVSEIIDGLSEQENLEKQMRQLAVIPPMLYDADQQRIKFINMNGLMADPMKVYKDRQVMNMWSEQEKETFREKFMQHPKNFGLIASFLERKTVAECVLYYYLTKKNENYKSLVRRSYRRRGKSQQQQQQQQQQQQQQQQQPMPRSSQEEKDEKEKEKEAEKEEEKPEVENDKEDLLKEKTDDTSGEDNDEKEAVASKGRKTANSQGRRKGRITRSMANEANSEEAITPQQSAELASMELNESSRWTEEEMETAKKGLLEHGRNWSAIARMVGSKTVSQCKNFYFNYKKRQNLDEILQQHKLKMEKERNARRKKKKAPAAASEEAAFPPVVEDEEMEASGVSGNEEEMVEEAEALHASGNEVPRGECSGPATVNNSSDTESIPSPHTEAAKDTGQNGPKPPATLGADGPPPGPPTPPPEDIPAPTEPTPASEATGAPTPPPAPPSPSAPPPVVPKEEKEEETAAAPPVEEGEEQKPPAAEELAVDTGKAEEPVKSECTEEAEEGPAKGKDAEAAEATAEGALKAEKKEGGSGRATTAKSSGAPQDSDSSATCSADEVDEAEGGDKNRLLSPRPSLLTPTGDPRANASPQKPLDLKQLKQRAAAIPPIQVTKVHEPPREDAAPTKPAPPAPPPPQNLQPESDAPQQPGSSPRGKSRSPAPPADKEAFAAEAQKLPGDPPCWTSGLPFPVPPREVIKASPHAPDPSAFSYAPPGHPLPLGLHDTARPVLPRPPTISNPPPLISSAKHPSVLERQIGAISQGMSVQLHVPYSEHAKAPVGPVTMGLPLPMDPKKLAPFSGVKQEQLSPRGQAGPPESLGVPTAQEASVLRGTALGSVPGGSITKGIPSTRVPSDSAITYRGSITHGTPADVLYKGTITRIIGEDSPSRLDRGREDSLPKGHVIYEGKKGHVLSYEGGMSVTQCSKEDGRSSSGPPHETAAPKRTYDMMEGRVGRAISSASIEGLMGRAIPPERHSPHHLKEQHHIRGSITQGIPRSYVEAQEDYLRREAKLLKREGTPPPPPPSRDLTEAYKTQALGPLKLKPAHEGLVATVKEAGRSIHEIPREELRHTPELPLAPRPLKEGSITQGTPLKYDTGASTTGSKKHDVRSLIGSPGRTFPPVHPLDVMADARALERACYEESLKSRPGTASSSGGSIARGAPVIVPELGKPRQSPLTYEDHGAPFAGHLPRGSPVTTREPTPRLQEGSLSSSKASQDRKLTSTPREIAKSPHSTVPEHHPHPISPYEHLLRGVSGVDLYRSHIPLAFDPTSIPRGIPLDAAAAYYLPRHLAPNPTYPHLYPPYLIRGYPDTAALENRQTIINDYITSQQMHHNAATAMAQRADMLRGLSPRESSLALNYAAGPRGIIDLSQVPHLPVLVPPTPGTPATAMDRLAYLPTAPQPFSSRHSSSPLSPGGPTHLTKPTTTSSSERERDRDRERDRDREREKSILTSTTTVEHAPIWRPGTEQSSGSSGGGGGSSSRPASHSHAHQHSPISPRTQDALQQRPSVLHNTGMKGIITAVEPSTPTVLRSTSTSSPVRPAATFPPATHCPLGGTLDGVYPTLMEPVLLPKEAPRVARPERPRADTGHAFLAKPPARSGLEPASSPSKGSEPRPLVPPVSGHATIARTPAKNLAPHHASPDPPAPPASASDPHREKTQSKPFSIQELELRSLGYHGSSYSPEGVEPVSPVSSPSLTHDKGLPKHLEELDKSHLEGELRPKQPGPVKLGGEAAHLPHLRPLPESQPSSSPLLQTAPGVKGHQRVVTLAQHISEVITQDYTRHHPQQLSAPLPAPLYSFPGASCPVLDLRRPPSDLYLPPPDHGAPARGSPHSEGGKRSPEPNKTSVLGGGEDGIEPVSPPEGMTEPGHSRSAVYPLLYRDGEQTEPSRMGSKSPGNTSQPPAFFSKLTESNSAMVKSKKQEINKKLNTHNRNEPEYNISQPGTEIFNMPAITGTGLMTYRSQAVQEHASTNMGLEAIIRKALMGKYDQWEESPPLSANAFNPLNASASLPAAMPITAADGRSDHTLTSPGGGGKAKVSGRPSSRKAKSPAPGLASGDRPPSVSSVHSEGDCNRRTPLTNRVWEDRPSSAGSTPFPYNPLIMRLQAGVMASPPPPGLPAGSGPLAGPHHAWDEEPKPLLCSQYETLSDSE
Chain of Cytochrome P450 3A4 (P08684 whole entry): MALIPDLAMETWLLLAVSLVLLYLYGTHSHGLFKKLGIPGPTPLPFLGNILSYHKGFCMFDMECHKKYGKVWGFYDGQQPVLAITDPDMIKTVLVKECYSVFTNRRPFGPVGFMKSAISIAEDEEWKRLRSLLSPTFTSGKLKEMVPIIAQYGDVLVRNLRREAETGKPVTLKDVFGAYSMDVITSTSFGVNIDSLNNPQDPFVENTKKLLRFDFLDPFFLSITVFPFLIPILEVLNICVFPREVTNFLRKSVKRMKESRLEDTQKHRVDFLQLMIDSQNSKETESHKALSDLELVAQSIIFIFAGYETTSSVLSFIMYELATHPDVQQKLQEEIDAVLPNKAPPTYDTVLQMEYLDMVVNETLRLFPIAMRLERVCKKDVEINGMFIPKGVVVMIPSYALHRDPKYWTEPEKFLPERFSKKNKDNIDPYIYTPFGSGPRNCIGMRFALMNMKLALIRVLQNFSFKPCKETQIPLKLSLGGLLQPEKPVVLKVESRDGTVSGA
Chain of Kallikrein-7 (P49862 whole entry): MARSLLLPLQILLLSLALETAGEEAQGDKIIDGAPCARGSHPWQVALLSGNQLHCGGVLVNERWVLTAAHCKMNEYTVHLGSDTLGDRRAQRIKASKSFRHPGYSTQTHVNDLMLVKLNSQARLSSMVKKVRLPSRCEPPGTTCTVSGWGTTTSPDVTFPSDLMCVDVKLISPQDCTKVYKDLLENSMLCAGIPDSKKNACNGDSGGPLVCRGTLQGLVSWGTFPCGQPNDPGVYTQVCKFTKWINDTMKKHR
Chain of Genome polyprotein (Q2Q167 whole entry): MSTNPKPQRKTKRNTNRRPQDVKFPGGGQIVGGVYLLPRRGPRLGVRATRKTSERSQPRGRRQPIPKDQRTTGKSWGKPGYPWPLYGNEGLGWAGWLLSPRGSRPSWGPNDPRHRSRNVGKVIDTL

## Cc1ccc(/C=N/n2cc(-c3ccccc3)nc2S)s1
[1]
  EC50: 10.4 µM (active)
H4
  EC50: 20 µM (active)
[2]
  EC50: 1.44 µM (active)

## COc1ccc(-c2csc(N(CCCN(C)C)C(=O)c3ccccc3Cl)n2)cc1
Vero
  IC50: 25 µM (active)
[3]
  AC50: > 20 µM (inactive)

## O=C(CCS(=O)(=O)Cc1ccccc1)Nc1nc2c(s1)CCCC2
[4]
  IC50: 13.4 µM (active)

## COc1ccc2[nH]c(-c3ccc(N)cc3)nc2c1
HT-1080
  EC50: > 50 µM (not active)

## Cc1ccc2[nH]c(CSc3nc(C)ccc3C#N)nc2c1
[5]
  EC50: > 120 µM (not active)
[6]
  AC50: > 52 µM (inactive)
[7]
  AC50: > 52 µM (inactive)
[8]
  AC50: 30.8 µM (active)
[9]
  AC50: 33.5 µM (active)
[10]
  EC50: > 67.5 µM (inactive)
cells
  EC50: > 67.5 µM (inactive)

## CC(=O)Nc1sc2c(c1-c1nc3ccccc3s1)CCN(C(C)C)CC2
[11]
  IC50: 16.9 µM (inactive)

## COc1ccc(C(=O)NC(=S)Nc2ccc3[nH]c(=O)[nH]c3c2)c(OC)c1
Genome polyprotein
  IC50: > 49.8 µM (not active)

## [O-][S+](Cc1cn(Cc2ccc(F)cc2)nn1)c1nnc(-c2ccc(Cl)cc2)o1 (stereo not drawn)
[12]
  AC50: 15.1 µM (active)
[13]
  AC50: 17.2 µM (active)

## Cc1noc(C)c1S(=O)(=O)Nc1ccc2c(c1)C(=O)N([C@@H](C)CO)C[C@@H](C)[C@@H](CN(C)Cc1ccc(C(F)(F)F)cc1)OCCCC[C@@H](C)O2
[14]
  AbsAC35: 38.34 µM
[15]
  AC50: > 15 µM (inactive)

## NC(=O)c1sc2nc3c(c(-c4ccco4)c2c1N)CCC3
[16]
  IC50: 10.2 µM (not active)

## COc1ccc(C(=O)NCc2ccc(-c3nc4ccccc4s3)cc2)cc1OC
[17]
  IC50: 6.27 µM (active)
[18]
  IC50: 5.83 µM (active)

## CCOC(=O)C1CCCN(C(=O)c2sc3nc(-c4ccc(OC)cc4)cn3c2C)C1 (stereo not drawn)
[19]
  IC50: 5.85 µM (active)
Cytochrome P450 3A4
  AC50: 14.1 µM (inconclusive)

## CC(C)NC(=O)N1[C@H](C#N)[C@H](c2ccc(C#CC3CCCC3)cc2)[C@@H]1CO
[20]
  AC50: 3.52 µM (active)
[21]
  AC50: 36.7 µM (active)
[22]
  AC50: 803 nM (active)
[23]
  AC50: 684 nM (active)
[24]
  AC50: 845 nM (active)
[25]
  AC50: 887 nM (active)

## Cc1[nH]c2ccccc2c1C1=CCNCC1
[26]
  EC50: > 50 µM (not active)
[27]
  AC50: 4.56 µM (active)

## Cc1ccc2nc(NCC(=O)O)nc(-c3ccccc3)c2c1
Kallikrein-7
  EC50: 14.5 µM (inactive)

## CCCCCCC[N+](CC)(CC)CCCCc1ccc(Cl)cc1
INS1
  AC50: 4.29 µM (active)
Protein Wnt-3a
  IC50: 2.74 µM (active)
[28]
  IC50: > 10 µM (inactive)
[29]
  IC50: > 10 µM (inactive)
